# Where two headings read alike, the source gives them in different places. Square brackets hold non-standard residues; d marks the D form. Peptide text beside a SMILES is read from it. Leu(ol) = CC(C)C[C@H](N)CO; dIva = CC[C@@](C)(N)C(=O)O; Aib = CC(C)(N)C(=O)O
# System: Dd2-B2
# Format: cell-based, P. falciparum
# Procedure: Screening of HZ NPDG-I resistant clones was performed at 1% parasitemia, 0.2% hematocrit with flow cytometry in V-shaped 96-well plates. Briefly, compounds were subjected to a 3-fold serial dilution with the highest concentration set at 4 μM or 8 μM. Eleven dilution points were included in addition to no-drug controls. Three technical replicates were set up for each compound at each dilution point. The Dd2-B2 parent line, or the clonal line 1B2, 2B3, 3A3, or 1E2 were added at 0.4% hematocrit and 1% parasitemia to the diluted compounds at a 1:1 ratio. The plate was incubated at 37°C for 72 h in a chamber filled with a hypoxic gas mixture (3% oxygen, 5% carbon dioxide, and 92% nitrogen). After incubation, a blood pellet was formed at the bottom of each well of the 96-well plate. Supernatant was removed without disturbing the pellet, and 20 μl of SYTO 61(1:10,000 dilution; Thermo Fisher Scientific, Cat No. S11343) in PBS was added to each well and incubated for 15 mins at room temperature. The cells in each well were then diluted with 180 μl of PBS and subjected to flow cytometry for parasitemia determination using the HTS (High-Throughput Sampler) of BD FACSCanto II (BD Biosciences, NJ). Flow cytometry data was analyzed using FlowJo Version 10.4.0. Dose response curves were generated and IC50 values obtained with GraphPad Prism Version 9.1.1.
# A clone of the Dd2 strain (Dd2-B2) of P. falciparum was used for in vitro evolution of resistance against harzianin NPDG I. Three flasks of 1.2 x 10^8 parasites were continuously exposed to a stepwise-increasing concentration of the compound over ∼3 months starting from 20 nM up to a final concentration of 100 nM. Once a stable rightward shift in 72 h IC50 was observed, cultures were subjected to limiting dilution to obtained harzianin-resistant clones. Each clone was expanded, phenotyped to confirm resistance, and submitted for whole genome sequencing. An untreated flask of Dd2-B2 parasites was maintained in parallel throughout the course of in vitro selection as a control.
smiles,measurement,setting,value
"CC[C@H](C)[C@H](NC(=O)[C@H](CC(C)C)NC(=O)[C@H](CCC(N)=O)NC(=O)[C@@](C)(CC)NC(C)=O)C(=O)NC(C)(C)C(=O)N1CCC[C@H]1C(=O)N[C@](C)(CC)C(=O)N[C@@H](CC(C)C)C(=O)NC(C)(C)C(=O)N1CCC[C@H]1C(=O)N[C@H](CO)CC(C)C [HZ NPDG-I, harzianin NPDG I] (Ac-[dIva]QLI[Aib]P[dIva]L[Aib]P[Leu(ol)])",IC50,"flask 1, read-out: IC50, Dd2-B2 parent",0.0536 nM
same,IC50,"flask 2, read-out: IC50, Dd2-B2 parent",0.0222 nM
same,IC50,"flask 3, read-out: IC50, DD2-B2 parent",0.0437 nM
